Measurements published in US9247759B2, “Identification of human T2R receptors that respond to bitter compounds that elicit the bitter taste in compositions, and the use thereof in assays to identify compounds that inhibit (block) bitter taste in compositions and use thereof” (SENOMYX, INC., priority 2007, dated 2016).
Where two headings read alike, the source gives them in different places.

Target: hT2R8 (Homo sapiens (Human), UniProt Q9NYW2)
Experiment: hT2R8 antagonist high-throughput FLIPR assay, stable cell line with G16g44, agonist andrographolide
Format: cell-based
Description: After a ligand is identified for a particular hT2R, a HEK293 cell line stably expressing both the hT2R and G16gust44 are generated, facilitating future screening assays to identify other ligands that activate the particular hT2R or which modulate (block or enhance) the activation of this hT2R by another bitter ligand such as a bitter compound contained in coffee. This avoids the need for transient transfection.
(§1) To identify antagonists, cell lines stably expressing hT2R8 and hT2R14, respectively, together with the promiscuous chimeric G16g44 protein were generated as described in previous patent applications. A high-throughput assay was established using the stable cell lines and FLIPR (Fluorescent Imaging Plate Reader). An agonist of hT2R8 or hT2R14 was used to activate the receptors up to 70-80% of their respective maximal activity. For hT2R8, the agonist used was andrographolide (200 λM); for hT2R14, it was aristolochic acid (3 μM). To identify antagonists, compounds with diverse chemical structures were added together with the agonist.
as §1, with “hT2R8” for “hT2R8 and hT2R14, respectively,”, “hT2R8” for “hT2R8 or hT2R14”, “(200” for “(200 λM); for hT2R14, it was aristolochic acid (3”

[1] = table after Example 10-97, read-out: hT2R8 IC50
[2] = read-out: IC50 on hT2R8 bitter receptor

hT2R8, sequence (Q9NYW2 whole entry): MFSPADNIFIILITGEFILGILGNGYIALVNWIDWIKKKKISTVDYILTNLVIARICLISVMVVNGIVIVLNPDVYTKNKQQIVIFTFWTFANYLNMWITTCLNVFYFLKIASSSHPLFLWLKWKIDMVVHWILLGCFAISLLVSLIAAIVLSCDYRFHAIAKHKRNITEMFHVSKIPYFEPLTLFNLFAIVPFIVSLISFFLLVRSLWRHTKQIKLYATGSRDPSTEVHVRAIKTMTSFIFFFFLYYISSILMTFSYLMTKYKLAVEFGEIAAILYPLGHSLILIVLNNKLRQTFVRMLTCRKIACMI

COc1ccc(CN2CC(=O)N(c3cnn(Cc4c(C)noc4C)c3)C2=O)cc1O [Example 10-13, 3-(1-((3,5-dimethylisoxazol-4-yl)methyl)-1H-pyrazol-4-yl)-1-(3-hydroxy-4-methoxybenzyl)imidazolidine-2,4-dione]
IC50 [1]: 0.087 µM | IC50 (unit uM, read-out: IC50 on hT2R08 bitter receptor): 0.1 µM

Cc1noc(C)c1Cn1cc(N2C(=O)CNC2=O)cn1 [Example 10-1, 3-(1-((3,5-dimethylisoxazol-4-yl)methyl)-1H-pyrazol-4-yl)imidazolidine-2,4-dione]
IC50 [2]: 1.7 µM | IC50 [1]: 1.7 µM

Cc1noc(C)c1Cn1cc(NC(=O)c2ccc3occc3c2)cn1 [Example 4-77, N-(1-((3,5-dimethylisoxazol-4-yl)methyl)-1H-pyrazol-4-yl)benzofuran-5-carboxamide]
IC50 (Table A, read-out: hT2R8 IC50): 1.4 µM

Cc1noc(C)c1Cn1cc(N2C(=O)N(Cc3ccn(C)n3)C(C)(C)C2=O)cn1 [Example 12-71, 3-(1-((3,5-dimethylisoxazol-4-yl)methyl)-1H-pyrazol-4-yl)-5,5-dimethyl-1-((1-methyl-1H-pyrazol-3-yl)methyl)imidazolidine-2,4-dione]
IC50 (table after Example 12-37, read-out: hT2R8 IC50): 0.42 µM

Cc1noc(C)c1Cn1cc(N2C(=O)N(C)C(C)(C)C2=O)cn1 [Example 10-52, 3-(1-((3,5-dimethylisoxazol-4-yl)methyl)-1H-pyrazol-4-yl)-1,5,5-trimethylimidazolidine-2,4-dione]
IC50 [2]: 0.8 µM | IC50 [1]: 0.81 µM

Cc1noc(C)c1Cn1cc(NC(=S)NCc2ccccc2)cn1 [Example 4-110, 1-benzyl-3-(1-((3,5-dimethylisoxazol-4-yl)methyl)-1H-pyrazol-4-yl)thiourea]
IC50 (Table A, read-out: hT2R8 IC50): 1.1 µM

Cc1noc(C)c1Cn1cc(NC(=O)Cc2ccoc2)cn1 [Example 4-58, N-(1-((3,5-dimethylisoxazol-4-yl)methyl)-1H-pyrazol-4-yl)-2-(furan-3-yl)acetamide]
IC50 (Table A, read-out: hT2R8 IC50): 8.66 µM

COC(C(=O)Nc1cnn(Cc2c(C)noc2C)c1)c1ccccc1 (stereo not drawn) [Example 4-43, N-(1-((3,5-dimethylisoxazol-4-yl)methyl)-1H-pyrazol-4-yl)-2-methoxy-2-phenylacetamide]
IC50 (Table A, read-out: hT2R8 IC50): 3.43 µM

Cc1nc2cc(C(=O)Nc3cnn(Cc4c(C)noc4C)c3)ccc2[nH]1 [Example 4-79, N-(1-((3,5-dimethylisoxazol-4-yl)methyl)-1H-pyrazol-4-yl)-2-methyl-1H-benzo[d]imidazole-5-carboxamide]
IC50 (Table A, read-out: hT2R8 IC50): 1 µM

Cc1noc(C)c1Cn1cc(-n2c(=O)n(C)n(C)c2=O)cn1 [Example 10-69, 4-(1-((3,5-dimethylisoxazol-4-yl)methyl)-1H-pyrazol-4-yl)-1,2-dimethyl-1,2,4-triazolidine-3,5-dione]
IC50 [2]: 0.6 µM | IC50 [1]: 0.707 µM

COc1cc(C(=O)Nc2cnn(Cc3c(C)noc3C)c2)cc(O)c1O [Example 4-73, N-(1-((3,5-dimethylisoxazol-4-yl)methyl)-1H-pyrazol-4-yl)-3,4-dihydroxy-5-methoxybenzamide]
IC50 (Table A, read-out: hT2R8 IC50): 2.2 µM | IC50 [2]: 2.2 µM

Cc1noc(C)c1Cn1cc(N2C(=O)N(Cc3cccc(O)c3)C(C)(CO)C2=O)cn1 (stereo not drawn) [Example 12-10, 3-(1-((3,5-dimethylisoxazol-4-yl)methyl)-1H-pyrazol-4-yl)-1-(3-hydroxybenzyl)-5-(hydroxymethyl)-5-methylimidazolidine-2,4-dione]
IC50 [2]: 0.13 µM

Cc1noc(C)c1Cn1cc(N2C(=O)CN(Cc3cccc(C(=O)O)c3)C2=O)cn1 [Example 10-8, 3-((3-(1-((3,5-dimethylisoxazol-4-yl)methyl)-1H-pyrazol-4-yl)-2,4-dioxoimidazolidin-1-yl)methyl)benzoic acid]
IC50 [2]: 1.8 µM | IC50 [1]: 1.8 µM

Cc1noc(C)c1Cn1cc(NC(=S)Nc2cccc(C#N)c2)cn1 [Example 4-109, 1-(3-cyanophenyl)-3-(1-((3,5-dimethylisoxazol-4-yl)methyl)-1H-pyrazol-4-yl)thiourea]
IC50 (Table A, read-out: hT2R8 IC50): 0.783 µM

Cc1noc(C)c1Cn1cc(N2C(=O)[C@H](CO)N(Cc3cccc(O)c3)C2=O)cn1 [Example 12-9, (S)-3-(1-((3,5-dimethylisoxazol-4-yl)methyl)-1H-pyrazol-4-yl)-1-(3-hydroxybenzyl)-5-(hydroxymethyl)imidazolidine-2,4-dione]
IC50 [2]: 0.04 µM
